Measured values: patent US9113629B2, “4-amino-6-(4-substituted-phenyl)-picolinates and 6-amino-2-(4-substituted-phenyl)-pyrimidine-4-carboxylates and their use as herbicides” (DOW AGROSCIENCES LLC, priority 2013, dated 2015)
Where two headings read alike, the source gives them in different places.

What was measured:
[1] = Post-emergent Test III, herbicidal activity in wheat and barley; assay type: in vivo, Lolium multiflorum, Lolium rigidum; settings: Lolium multiflorum, post-emergence, 504 h, read-out: Visual Growth Reduction (%) 21 Days After Application LOLSS; for pest or weed control at 35 g/ha: 35 g ai/ha; for pest or weed control at 70 g/ha: 70 g ai/ha; for pest or weed control at 140 g/ha: 140 g ai/ha
Summary of the method: (§1)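 Plants at the second to third true-leaf stage, grown in a greenhouse at about 18/17 °C with a 14 h photoperiod, were sprayed post-emergence at 187 L/ha with the high rate and ½× to 1/16× serial dilutions in an acetone/DMSO/crop-oil/surfactant carrier. Injury was rated visually at 21 d on a 0–100% scale, and GR20–GR90 were derived by probit analysis.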

[2] = tested on: APESV: bentgrass (Apera spica-venti); experiment: as above; assay type: in vivo; settings: for pest or weed control at 35 g/ha / pest or weed control at 70 g/ha / pest or weed control at 140 g/ha: Apera spica-venti, post-emergence, 504 h, read-out: Visual Growth Reduction (%) 21 Days After Application APESV; for pest or weed control at 35 g/ha: 35 g ai/ha; for pest or weed control at 70 g/ha: 70 g ai/ha; for pest or weed control at 140 g/ha: 140 g ai/ha; for GR50 APESV / GR80 APESV: probit analysis
Summary of the method: as §1

[3] = tested on: HORSS: barley, including spring and winter (Hordeum vulgare); experiment: as above; assay type: in vivo; settings: for pest or weed control at 35 g/ha: 35 g ai/ha; for pest or weed control at 70 g/ha: 70 g ai/ha; for GR20 HORSS: probit analysis
Summary of the method: as §1

[4] = tested on: KCHSC: kochia (Kochia scoparia); experiment: as above; assay type: in vivo; settings: for pest or weed control at 35 g/ha / pest or weed control at 70 g/ha / pest or weed control at 140 g/ha: Bassia scoparia, post-emergence, 504 h, read-out: Visual Growth Reduction (%) 21 Days After Application KCHSC; for pest or weed control at 35 g/ha: 35 g ai/ha; for pest or weed control at 70 g/ha: 70 g ai/ha; for pest or weed control at 140 g/ha: 140 g ai/ha; for GR50 KCHSC / GR80 KCHSC: probit analysis
Summary of the method: as §1

LAMSS = experiment: as above; assay type: in vivo; settings: for pest or weed control at 35 g/ha / pest or weed control at 70 g/ha / pest or weed control at 140 g/ha: post-emergence, 504 h, read-out: Visual Growth Reduction (%) 21 Days After Application LAMSS; for pest or weed control at 35 g/ha: 35 g ai/ha; for pest or weed control at 70 g/ha: 70 g ai/ha; for pest or weed control at 140 g/ha: 140 g ai/ha; for GR50 LAMSS / GR80 LAMSS: probit analysis, 21 days after application; for GR50 LAMSS: dose for growth reduction of 50 percent; for GR80 LAMSS: dose for growth reduction of 80 percent
Summary of the method: as §1

[5] = tested on: LOLSS: ryegrass including, Italian ryegrass (Lolium multiflorum), rigid ryegrass (Lolium rigidum), annual ryegrass (Lolium multiflorum subsp. Gaudini); experiment: as above; assay type: in vivo; settings: probit analysis
Summary of the method: as §1

[6] = tested on: MATSS: scented mayweed (Matricaria chamomilla), pineappleweed (Matricaria matricarioides); experiment: as above; assay type: in vivo; settings: for pest or weed control at 35 g/ha / pest or weed control at 70 g/ha / pest or weed control at 140 g/ha: Matricaria chamomilla, post-emergence, 504 h, read-out: Visual Growth Reduction (%) 21 Days After Application MATSS; for pest or weed control at 35 g/ha: 35 g ai/ha; for pest or weed control at 70 g/ha: 70 g ai/ha; for pest or weed control at 140 g/ha: 140 g ai/ha; for GR50 MATSS / GR80 MATSS: probit analysis, 21 days after application; for GR50 MATSS: dose for growth reduction of 50 percent; for GR80 MATSS: dose for growth reduction of 80 percent
Summary of the method: as §1

[7] = tested on: TRZSS: wheat, including spring and winter (Triticum aestivum); experiment: as above; assay type: in vivo; settings: for pest or weed control at 35 g/ha: 35 g ai/ha; for pest or weed control at 70 g/ha: 70 g ai/ha; for GR20 TRZSS: probit analysis
Summary of the method: as §1

[8] = tested on: VERPE: bird's-eye speedwell (veronica persica); experiment: as above; assay type: in vivo
Summary of the method: as §1

[9] = dose for growth reduction of 50 percent, 21 days after application
[10] = dose for growth reduction of 80 percent, 21 days after application
[11] = Hordeum vulgare, post-emergence, 504 h, read-out: Visual Growth Reduction (%) 21 Days After Application HORSS
[12] = dose for growth reduction of 20 percent, 21 days after application, crop
[13] = Triticum aestivum, post-emergence, 504 h, read-out: Visual Growth Reduction (%) 21 Days After Application TRZSS
[14] = Table 9, dose for 50 percent growth reduction, 21 d
[15] = Table 9, dose for 80 percent growth reduction, 21 d
[16] = Hordeum vulgare, post-emergence, 504 h, Table 9, post-emergent, 21 d, read-out: Visual Growth Reduction (%) 21 Days After Application HORSS
[17] = Table 9, dose for 20 percent growth reduction, 21 d
[18] = Triticum aestivum, post-emergence, 504 h, Table 9, post-emergent, 21 d, read-out: Visual Growth Reduction (%) 21 Days After Application TRZSS

## Nc1cc(-c2ccc(Br)c(F)c2F)nc(C(=O)O)c1Cl [Compound 91]
[1]
  pest or weed control at 35 g/ha: 0 to 29%
  pest or weed control at 70 g/ha: 0 to 29%
  pest or weed control at 140 g/ha: 0 to 29%
[2]
  pest or weed control at 35 g/ha: 45 to 59%
  pest or weed control at 70 g/ha: 45 to 59%
  pest or weed control at 140 g/ha: 60 to 74%
[2]; [9]
  GR50 APESV: 67 g ai/ha
[2]; [10]
  GR80 APESV: >140 g ai/ha
[3]; [11]
  pest or weed control at 35 g/ha: 75 to 84%
  pest or weed control at 70 g/ha: 75 to 84%
[3]; Hordeum vulgare, post-emergence, 504 h, 140 g ai/ha, read-out: Visual Growth Reduction (%) 21 Days After Application HORSS
  pest or weed control at 140 g/ha: 85 to 94%
[3]; [12]
  GR20 HORSS: 1 g ai/ha
[4]
  pest or weed control at 35 g/ha: 75 to 84%
  pest or weed control at 70 g/ha: 85 to 94%
  pest or weed control at 140 g/ha: 85 to 94%
[4]; [9]
  GR50 KCHSC: 2 g ai/ha
[4]; [10]
  GR80 KCHSC: 47 g ai/ha
LAMSS
  pest or weed control at 35 g/ha: 95 to 100%
  pest or weed control at 70 g/ha: 95 to 100%
  pest or weed control at 140 g/ha: 95 to 100%
  GR50 LAMSS: 1 g ai/ha
  GR80 LAMSS: 3 g ai/ha
[5]; [9]
  GR50 LOLSS: >140 g ai/ha
[5]; [10]
  GR80 LOLSS: >140 g ai/ha
[6]
  pest or weed control at 35 g/ha: 60 to 74%
  pest or weed control at 70 g/ha: 75 to 84%
  pest or weed control at 140 g/ha: 85 to 94%
  GR50 MATSS: 11 g ai/ha
  GR80 MATSS: 75 g ai/ha
[7]; [13]
  pest or weed control at 35 g/ha: 75 to 84%
  pest or weed control at 70 g/ha: 85 to 94%
[7]; Triticum aestivum, post-emergence, 504 h, 140 g ai/ha, read-out: Visual Growth Reduction (%) 21 Days After Application TRZSS
  pest or weed control at 140 g/ha: 85 to 94%
[7]; [12]
  GR20 TRZSS: 1 g ai/ha
[8]; Veronica persica, post-emergence, 504 h, 35 g ai/ha, read-out: Visual Growth Reduction (%) 21 Days After Application VERPE
  pest or weed control at 35 g/ha: 30 to 44%
[8]; Veronica persica, post-emergence, 504 h, 70 g ai/ha, read-out: Visual Growth Reduction (%) 21 Days After Application VERPE
  pest or weed control at 70 g/ha: 30 to 44%
[8]; Veronica persica, post-emergence, 504 h, 140 g ai/ha, read-out: Visual Growth Reduction (%) 21 Days After Application VERPE
  pest or weed control at 140 g/ha: 45 to 59%
[8]; probit analysis, dose for growth reduction of 50 percent, 21 days after application
  GR50 VERPE: 123 g ai/ha
[8]; probit analysis, dose for growth reduction of 80 percent, 21 days after application
  GR80 VERPE: >140 g ai/ha

## Nc1cc(-c2ccc(Br)cc2)nc(C(=O)O)c1Cl [Compound 168]
[1]; Table 9, post-emergent, 21 d
  pest or weed control at 35 g/ha: 0 to 29%
  pest or weed control at 70 g/ha: 45 to 59%
[2]; Table 9, post-emergent, 21 d
  pest or weed control at 35 g/ha: 75 to 84%
  pest or weed control at 70 g/ha: 85 to 94%
[2]; [14]
  GR50 APESV: 21 g ai/ha
[2]; [15]
  GR80 APESV: 57 g ai/ha
[3]; [16]
  pest or weed control at 35 g/ha: 85 to 94%
  pest or weed control at 70 g/ha: 95 to 100%
[3]; [17]
  GR20 HORSS: 1 g ai/ha
[4]; Table 9, post-emergent, 21 d
  pest or weed control at 35 g/ha: 95 to 100%
  pest or weed control at 70 g/ha: 95 to 100%
[4]; [14]
  GR50 KCHSC: 5 g ai/ha
[4]; [15]
  GR80 KCHSC: 15 g ai/ha
[5]; [14]
  GR50 LOLSS: 108 g ai/ha
[5]; [15]
  GR80 LOLSS: >140 g ai/ha
[7]; [17]
  GR20 TRZSS: 1 g ai/ha
[7]; [18]
  pest or weed control at 35 g/ha: 85 to 94%
  pest or weed control at 70 g/ha: 95 to 100%

## COC(=O)c1nc(-c2ccc(F)c(F)c2F)c(F)c(N)c1Cl [Compound 186]
[1]
  pest or weed control at 35 g/ha: 0 to 29%
  pest or weed control at 70 g/ha: 0 to 29%
  pest or weed control at 140 g/ha: 0 to 29%
[2]
  pest or weed control at 35 g/ha: 0 to 29%
  pest or weed control at 70 g/ha: 0 to 29%
  pest or weed control at 140 g/ha: 0 to 29%
[2]; [9]
  GR50 APESV: >140 g ai/ha
[2]; [10]
  GR80 APESV: >140 g ai/ha
[4]
  pest or weed control at 35 g/ha: 60 to 74%
  pest or weed control at 70 g/ha: 60 to 74%
  pest or weed control at 140 g/ha: 60 to 74%
[4]; [9]
  GR50 KCHSC: 1 g ai/ha
[4]; [10]
  GR80 KCHSC: >140 g ai/ha
LAMSS
  pest or weed control at 35 g/ha: 75 to 84%
  pest or weed control at 70 g/ha: 85 to 94%
  pest or weed control at 140 g/ha: 85 to 94%
  GR50 LAMSS: 1 g ai/ha
  GR80 LAMSS: 25 g ai/ha
[5]; [9]
  GR50 LOLSS: >140 g ai/ha
[5]; [10]
  GR80 LOLSS: >140 g ai/ha
[6]
  pest or weed control at 35 g/ha: 0 to 29%
  pest or weed control at 70 g/ha: 0 to 29%
  pest or weed control at 140 g/ha: 0 to 29%
  GR50 MATSS: >140 g ai/ha
  GR80 MATSS: >140 g ai/ha
